From patent US12649750B2, “Macrocyclic compounds, compositions, and methods of using thereof” (Sionna Therapeutics Inc., priority 2022, dated 2026)

Legend:
NBD1 = target: T1, NBD1 (Homo sapiens, UniProt P13569); assay: Aggregation analysis using differential static light scattering (DSLS), thermal stability of NBD1 (ΔTagg); format: binding; conditions: ΔTagg versus DMSO control, NBD1 0.2 mg/ml
T1 construct: Purified recombinant NBD1 was produced using previously described methods; made in house
T1 sequence (P13569 423-646 limits assumed): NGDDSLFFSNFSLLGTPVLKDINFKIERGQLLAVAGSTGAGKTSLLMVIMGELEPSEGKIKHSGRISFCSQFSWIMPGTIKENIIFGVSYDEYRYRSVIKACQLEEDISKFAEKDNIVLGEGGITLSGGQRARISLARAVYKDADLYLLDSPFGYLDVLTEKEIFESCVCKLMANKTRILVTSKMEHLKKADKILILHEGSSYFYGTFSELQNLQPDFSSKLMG
Procedure, shortened: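 Purified recombinant NBD1 at 0.2 mg/ml in 50 mM Tris-HCl, 150 mM NaCl, 5 mM MgCl2, 2 mM ATP, 2 mM DTT, pH 7.6, 1% glycerol, with compound, heated 1° C./min to 70° C. under light-scattering monitoring. Tagg taken at curve inflection; ΔTagg is compound Tagg minus mean DMSO-control Tagg, binned A (≤5° C.), B (>5-≤10° C.), C (>10-≤25° C.).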

CFTR = target: T2, CFTR (Homo sapiens, UniProt P13569, DEL508-508); assay: TECC24 AUC fold over DMSO @10 μM, CFTR-mediated transepithelial chloride transport in CF-HBE cells; format: cell-based; conditions: test agent AUC divided by DMSO vehicle AUC, primary CF-HBE cells, ΔF508 homozygous donor, 48 hours incubation
T2 construct: Primary human bronchial epithelial cells from a ΔF508 homozygous CF donor; host or cells: primary human bronchial epithelial cells (CF-HBE), ΔF508 homozygous donor
T2 sequence (P13569 with tags, fused parts or gaps DEL508-508): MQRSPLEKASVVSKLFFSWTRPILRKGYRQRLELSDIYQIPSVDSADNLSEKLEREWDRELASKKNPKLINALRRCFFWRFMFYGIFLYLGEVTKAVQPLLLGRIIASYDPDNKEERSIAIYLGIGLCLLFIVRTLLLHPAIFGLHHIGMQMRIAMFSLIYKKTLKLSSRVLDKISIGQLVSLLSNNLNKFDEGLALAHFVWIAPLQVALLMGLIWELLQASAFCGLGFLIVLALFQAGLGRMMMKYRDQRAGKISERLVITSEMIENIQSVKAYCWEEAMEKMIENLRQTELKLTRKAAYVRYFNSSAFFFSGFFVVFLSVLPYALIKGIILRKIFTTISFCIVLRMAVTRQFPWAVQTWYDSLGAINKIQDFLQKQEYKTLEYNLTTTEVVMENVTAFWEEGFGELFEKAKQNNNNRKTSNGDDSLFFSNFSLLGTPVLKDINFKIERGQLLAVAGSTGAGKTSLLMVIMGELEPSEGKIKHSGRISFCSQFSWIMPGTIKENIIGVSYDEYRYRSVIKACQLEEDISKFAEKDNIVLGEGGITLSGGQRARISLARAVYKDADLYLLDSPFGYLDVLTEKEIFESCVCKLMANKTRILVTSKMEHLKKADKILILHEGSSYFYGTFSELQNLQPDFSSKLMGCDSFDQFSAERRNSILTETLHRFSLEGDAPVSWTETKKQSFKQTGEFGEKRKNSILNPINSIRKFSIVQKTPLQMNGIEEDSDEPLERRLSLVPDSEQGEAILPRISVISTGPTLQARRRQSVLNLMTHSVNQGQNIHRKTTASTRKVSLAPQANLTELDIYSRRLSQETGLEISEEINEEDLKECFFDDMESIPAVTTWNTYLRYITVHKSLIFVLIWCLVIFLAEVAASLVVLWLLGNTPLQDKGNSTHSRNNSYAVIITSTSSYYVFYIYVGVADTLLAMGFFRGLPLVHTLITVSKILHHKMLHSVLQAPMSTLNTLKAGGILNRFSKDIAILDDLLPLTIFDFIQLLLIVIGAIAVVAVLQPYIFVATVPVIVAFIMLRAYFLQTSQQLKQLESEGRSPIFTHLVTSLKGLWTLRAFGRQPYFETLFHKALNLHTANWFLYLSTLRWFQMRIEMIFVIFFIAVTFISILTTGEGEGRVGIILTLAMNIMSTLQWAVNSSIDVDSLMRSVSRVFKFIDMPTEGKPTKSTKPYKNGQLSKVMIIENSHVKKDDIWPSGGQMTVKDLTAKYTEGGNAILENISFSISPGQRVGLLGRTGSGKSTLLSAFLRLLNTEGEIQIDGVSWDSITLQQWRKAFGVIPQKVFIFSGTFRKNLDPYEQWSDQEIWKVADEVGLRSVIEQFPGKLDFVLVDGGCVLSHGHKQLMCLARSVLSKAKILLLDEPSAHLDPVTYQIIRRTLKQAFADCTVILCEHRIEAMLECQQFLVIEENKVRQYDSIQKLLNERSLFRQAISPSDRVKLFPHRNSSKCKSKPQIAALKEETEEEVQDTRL
Procedure, shortened: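 ΔF508-homozygous primary bronchial epithelial cells incubated 48 h at 36.5° C with compound (10 μM) in IL-13-containing medium, then TECC24 current-clamp recording in pH 7.4 Hepes saline with benzamil 10 μM, forskolin 10 μM, then CFTR inhibitor-172 20 μM. Equivalent Cl− current AUC between forskolin and inhibitor, expressed as fold over DMSO.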

Compound | DSLS 3D (100 μM ΔT) (NBD1) | TECC (AUC, 10 μM) (CFTR)
CC1(C)CCCC(c2cccc(CCC(=O)O)c2)n2ccc(n2)-c2cc(ccc2F)Oc2c(F)cc3[nH]ccc3c2CCS(=O)(=O)C1 (single isomer, unassigned) [Compound 24B, 3-[3-[22,28-difluoro-10,10-dimethyl-12,12-dioxo-24-oxa-12lambda6-thia-5,19,30-triazapentacyclo[23.3.1.12,5.015,23.016,20]triaconta-1(29),2(30),3,15,17,20,22,25,27-nonaen-6-yl]phenyl]propanoic Acid] | C (a value greater than 10 °C and less than or equal to 25 °C is marked “C”) | A (a TECC value less than 12 is marked “A”)
CC1(C)CCCC(C)(c2cccc(CCC(=O)O)c2)c2c[nH]c(n2)-c2cc(ccc2F)Oc2c(F)cc3[nH]ccc3c2CCS(=O)(=O)C1 (single isomer, unassigned) [Compound 27A, 3-[3-(22,28-difluoro-6,10,10-trimethyl-12,12-dioxo-24-oxa-12lambda6-thia-3,19,30-triazapentacyclo[23.3.1.12,5.015,23.016,20]triaconta-1(29),2,4,15,17,20,22,25,27-nonaen-6-yl)phenyl]propanoic acid] | B (a value above 5 °C and less than or equal to 10 °C is marked “B”) | A (a TECC value less than 12 is marked “A”)
CC1(C)CCCC(C)(c2cccc(CCC(=O)O)c2)c2c[nH]c(n2)-c2cc(ccc2F)Oc2c(F)cc3[nH]ccc3c2CCS(=O)(=O)C1 (single isomer, unassigned) [Compound 27B, 3-[3-(22,28-difluoro-6,10,10-trimethyl-12,12-dioxo-24-oxa-12lambda6-thia-3,19,30-triazapentacyclo[23.3.1.12,5.015,23.016,20]triaconta-1(29),2,4,15,17,20,22,25,27-nonaen-6-yl)phenyl]propanoic acid] | C (a value greater than 10 °C and less than or equal to 25 °C is marked “C”) | C (a value between 20 and 80 is marked “C”)
CC(Cc1cccc(C2(C)CCOC(C)(C)CS(=O)(=O)CCc3c(c(F)cc4[nH]ccc34)Oc3ccc(F)c(c3)-c3nc2nn3C)c1)C(=O)O (single isomer, unassigned) [Compound 28A, 3-[3-(22,28-difluoro-3,6,10,10-tetramethyl-12,12-dioxo-9,24-dioxa-12lambda6-thia-3,4,19,30-tetrazapentacyclo[23.3.1.12,5.015,23.016,20]triaconta-1(29),2(30),4,15,17,20,22,25,27-nonaen-6-yl)phenyl]-2-methyl-propanoic Acid] | C (a value greater than 10 °C and less than or equal to 25 °C is marked “C”) | C (a value between 20 and 80 is marked “C”)
CC(Cc1cccc(C2(C)CCOC(C)(C)CS(=O)(=O)CCc3c(c(F)cc4[nH]ccc34)Oc3ccc(F)c(c3)-c3nc2nn3C)c1)C(=O)O (single isomer, unassigned) [Compound 28B, 3-[3-(22,28-difluoro-3,6,10,10-tetramethyl-12,12-dioxo-9,24-dioxa-12lambda6-thia-3,4,19,30-tetrazapentacyclo[23.3.1.12,5.015,23.016,20]triaconta-1(29),2(30),4,15,17,20,22,25,27-nonaen-6-yl)phenyl]-2-methyl-propanoic Acid] | A (an ΔTagg value less than or equal to 5 °C is marked “A”) | B (a value between 12-20 is marked “B”)
Cn1nc2nc1-c1cc(ccc1F)Oc1c(F)cc3[nH]ccc3c1CCS(=O)(=O)CC(C)(C)CCCC2(C)c1cccc(CC(C)(C)C(=O)O)c1 (single isomer, unassigned) [Compound 29A, 3-[3-(22,28-Difluoro-3,6,10,10-tetramethyl-12,12-dioxo-24-oxa-12lambda6-thia-3,4,19,30-tetrazapentacyclo[23.3.1.12,5.015,23.016,20]triaconta-1(29),2(30),4,15,17,20,22,25,27-nonaen-6-yl)phenyl]-2,2-dimethyl-propanoic acid] | C (a value greater than 10 °C and less than or equal to 25 °C is marked “C”) | C (a value between 20 and 80 is marked “C”)
Cn1nc2nc1-c1cc(ccc1F)Oc1c(F)cc3[nH]ccc3c1CCS(=O)(=O)CC(C)(C)CCCC2(C)c1cccc(CC(C)(C)C(=O)O)c1 (single isomer, unassigned) [Compound 29B, 3-[3-(22,28-Difluoro-3,6,10,10-tetramethyl-12,12-dioxo-24-oxa-12lambda6-thia-3,4,19,30-tetrazapentacyclo[23.3.1.12,5.015,23.016,20]triaconta-1(29),2(30),4,15,17,20,22,25,27-nonaen-6-yl)phenyl]-2,2-dimethyl-propanoic acid] | A (an ΔTagg value less than or equal to 5 °C is marked “A”) | A (a TECC value less than 12 is marked “A”)
Cn1nc2nc1-c1cc(ccc1F)C(O)c1c(F)cc3[nH]ccc3c1CCS(=O)(=O)CC(C)(C)CCCC2(C)c1cccc(CCC(=O)O)c1 (single isomer, unassigned) [Compound 30A, 3-[3-(22,28-difluoro-24-hydroxy-3,6,10,10-tetramethyl-12,12-dioxo-12lambda6-thia-3,4,19,30-tetrazapentacyclo[23.3.1.12,5.015,23.016,20]triaconta-1(29),2(30),4,15,17,20,22,25,27-nonaen-6-yl)phenyl]propanoic acid] | C (a value greater than 10 °C and less than or equal to 25 °C is marked “C”) | C (a value between 20 and 80 is marked “C”)
Cn1nc2nc1-c1cc(ccc1F)C(O)c1c(F)cc3[nH]ccc3c1CCS(=O)(=O)CC(C)(C)CCCC2(C)c1cccc(CCC(=O)O)c1 (single isomer, unassigned) [Compound 30B, 3-[3-(22,28-difluoro-24-hydroxy-3,6,10,10-tetramethyl-12,12-dioxo-12lambda6-thia-3,4,19,30-tetrazapentacyclo[23.3.1.12,5.015,23.016,20]triaconta-1(29),2(30),4,15,17,20,22,25,27-nonaen-6-yl)phenyl]propanoic acid] | B (a value above 5 °C and less than or equal to 10 °C is marked “B”) | B (a value between 12-20 is marked “B”)
Cn1nc2nc1-c1cc(ccc1F)C(O)c1c(F)cc3[nH]ccc3c1CCS(=O)(=O)CC(C)(C)CCCC2(C)c1cccc(CCC(=O)O)c1 (single isomer, unassigned) [Compound 30C, 3-[3-(22,28-difluoro-24-hydroxy-3,6,10,10-tetramethyl-12,12-dioxo-12lambda6-thia-3,4,19,30-tetrazapentacyclo[23.3.1.12,5.015,23.016,20]triaconta-1(29),2(30),4,15,17,20,22,25,27-nonaen-6-yl)phenyl]propanoic acid] | B (a value above 5 °C and less than or equal to 10 °C is marked “B”) | C (a value between 20 and 80 is marked “C”)
Cn1nc2nc1-c1cc(ccc1F)C(O)c1c(F)cc3[nH]ccc3c1CCS(=O)(=O)CC(C)(C)CCCC2(C)c1cccc(CCC(=O)O)c1 (single isomer, unassigned) [Compound 30D, 3-[3-(22,28-difluoro-24-hydroxy-3,6,10,10-tetramethyl-12,12-dioxo-12lambda6-thia-3,4,19,30-tetrazapentacyclo[23.3.1.12,5.015,23.016,20]triaconta-1(29),2(30),4,15,17,20,22,25,27-nonaen-6-yl)phenyl]propanoic acid] | C (a value greater than 10 °C and less than or equal to 25 °C is marked “C”) | A (a TECC value less than 12 is marked “A”)
